From PubChem BioAssay AID1549 (Sanford-Burnham Center for Chemical Genomics, 2009) come the findings set out here.

The source made the active and inactive calls. No rule for the calls is given here.

The target in the test is Influenza A virus M2 proton channel (A/TW/4845/1999 H1N1). As to the kind of experiment: NMR binding screen, influenza A virus M2 proton channel, Kd (AID 1549). Particulars: M2 protein.
As to `COC(=O)c1ccc2ncccc2c1`, the Kd (usually a measure of binding affinity in units of concentration) was > 4 mM (inactive).

With `O=[n+]1c(CO)c(CO)n([O-])c2ccccc21`, the Kd is > 4 mM (inactive). The result for `C=C1[C@H]2CC[C@@]3(C)[C@H](c4ccoc4)OC(=O)C[C@]13O[C@H]1C[C@H](O)C(C)(C)[C@H](CC(=O)OC)[C@]12C` reads > 4 mM (inactive). For the molecule `C=CCn1c(-c2ccc(O)cc2)n[nH]c1=S`, the Kd is > 4 mM (inactive). The result for `NC(=O)c1ccccc1NC(=O)c1cccnc1` reads > 4 mM (inactive); that for `CCN1CCC(NC2CCCCNC2=O)CC1` (centres undefined), > 4 mM (inactive); that for `Cn1cnnc1SCCCNC(=O)Nc1ncccn1`, > 4 mM (inactive). To `Cc1cc(C(=O)NCc2cccnc2)no1` belongs > 4 mM (inactive); to `COc1cccc(NC(=O)c2ncn[nH]2)c1`, > 4 mM (inactive); to `C[n+]1ccc(C(=O)[O-])cc1`, > 4 mM (inactive).

For `CC(C)=CCc1c2c(c3occ(-c4ccc(O)c(O)c4)c(=O)c3c1O)C=CC(C)(C)O2`, the Kd was > 4 mM (inactive).

Turning to `COc1cccc(OC)c1C(=O)N1CCOCC1`, the Kd is > 4 mM (inactive). To `C[C@]12CCC3C(CC[C@]4(O)C[C@@H](O)CC[C@]34C=O)[C@@]1(O)CCC2C1=CC(=O)OC1` (some centres undefined) belongs > 4 mM (inactive).

In the case of `CCn1ncc(Cl)c1C(=O)Nc1ccncc1`, the Kd is > 4 mM (inactive). The result for `Cc1cc(C(F)(F)F)nn1CC(N)=O` reads > 4 mM (inactive); that for `O=C(O)c1ccc(-c2cnco2)cc1`, > 4 mM (inactive). The result for `CSc1ccc(C(=S)N2CCN(C)CC2)cc1` reads > 4 mM (inactive); that for `COc1ccc2nc(N)sc2n1`, > 4 mM (inactive). To `O=C(c1cccs1)N1CCCc2ccccc21` belongs > 4 mM (inactive); to `COc1ccc(NC(=O)N2CCCCC2)cc1`, > 4 mM (inactive); to `O=C(Nc1ccc(Cl)cn1)c1cnn2cccnc12`, > 4 mM (inactive).

`O=C1c2cccnc2C(=O)N1Cc1ccc2c(c1)OCO2`: the Kd was > 4 mM (inactive).

Turning to `Cc1ccc2cc(C(=O)O)ccc2n1`, the Kd was > 4 mM (inactive). To `COc1cc(C)c(Cl)cc1S(=O)(=O)N(C)C` belongs > 4 mM (inactive); to `Brc1cccc(-c2nnco2)c1`, > 4 mM (inactive); to `Nc1cccc(S(=O)(=O)N2CCOCC2)c1`, > 4 mM (inactive). To `O=C(Nc1ccon1)c1ccc2c(c1)OCO2` belongs > 4 mM (inactive); to `CNC(=O)c1c(O)c2ccccc2[nH]c1=O`, > 4 mM (inactive).

Consider `NC(c1ccccc1)c1ccccn1` (centres undefined), for which the Kd is > 4 mM (inactive).
